Laboratory results as given in patent US20230372427A1, “THE COMPOSITIONS OF PLANT INGREDIENTS AND HERBS AGAINST CORONAVIRUS” (priority 2022, published 2023).

System: wild-type SARS-CoV-2 pseudotyped lentivirus (WT-GFP-SARS-CoV-2-pseudotyped lentivirus)
Assay: microbe, parasite or virus in culture
Assay type: cell-based
Conditions: HEK-293T, 72 h, read-out: inhibitory effect (viral entry), positive control

For `CCN(CC)CCCC(C)Nc1ccnc2cc(Cl)ccc12` (stereo not shown) [chloroquine, Chloroquine], which inhibition at 0.5 µg/mL is on record?
Its inhibition at 0.5 µg/mL is about 70%.
